Patent US4468469A, “Substituted phenylacetic acids and salts as TBP blocking agents in iodothyronine immunoassays” (Miles Laboratories, Inc., priority 1982, dated 1984)
Values joined by “and” are separate entries in the source; they are usually repeats but may differ in a detail not shown here. Equal entries are not always repeated.

Columns and labels:
[1] = test system: antiserum to thyroxine / phosphodiesterase; assay: Enzyme substrate-labeled immunoassay for thyroxine; type: biochemical; details: 75 μl of 60 mM fenclofenac
Experimental: The following reagents were assembled:
Reagent A: 50 mM Bicine buffer with 0.1% sodium azide, pH 8.5
Reagent B: 60 mM fenclofenac in 0.5N sodium hydroxide
Reagent C: thyroxine standards with concentrations of 0, 2, 4, 6, 8, 10, 12, 16 and 20 μg/dl prepared by adding thyroxine (Sigma) to thyroxine free serum.
Reagent D: antibody/enzyme reagent containing 50 μl antiserum per ml and 0.12 units per ml of phosphodiesterase (Sigma, Type VII) in Bicine buffer.
Reagent E: 1.24 μM of the labeled conjugate (Part A above) in 5 mM formate, 0.1% sodium azide buffer, pH 3.5.
The assay protocol involved adding 75 μl of Reagent B and 0.5 ml of Reagent A to a cuvette, followed by 75 μl of an appropriate Reagent C and another 0.5 ml of Reagent A, and finally 75 μl of Reagent D and a third 0.5 ml of Reagent A. After a 1 hour incubation at room temperature, the assay reaction was started by adding 75 μl of Reagent E and 0.5 ml of Reagent A to the cuvette. The fluorescence (excitation=360 nm, emission=450 nm) was measured 20 minutes after addition of Reagent E.

[2] = test system: serum proteins (thyroxine binding protein, TBP); assay: Dissociation of thyroxine from human serum, second experiment (Seralute Sephadex column, pH 7.0); details: for release and block the binding of protein-bound iodothyronine: summary of both experiments of Example I; for Percent Dissociated: pH 7.0, 5 min
Experimental: Radioactive iodine labeled thyroxine (^125 I-thyroxine obtained from Amersham-Searle, Arlington Heights, IL, USA) was equilibrated with 5 ml of normal human serum for 48 hours at 4° C. […] After 5 minutes of incubation at room temperature, a 165 μl aliquot was applied to a Sephadex® column from a Seralute® thyroxine assay kit (Miles Laboratories, Inc., Ames Division, Elkhart, IN, USA), which had been equilibrated with 0.1M sodium phosphate, pH 7.0. The total radioactivity applied to the columns was measured and the undissociated material was washed through the column with 3 ml of buffer. The columns were counted to determine the percentage of thyroxine dissociated from the serum proteins.

dihydrofolate reductase = assay: Effect on the activity of dihydrofolate reductase; type: biochemical; details: for Absorbance Change Over 10 Minutes: 560 nm, 37° C.
Experimental: Assay mixtures were prepared to contain various concentrations of fenclofenac and, in a 1 ml final volume at 37° C., 0.3 mM thiazoyl blue, […] dihydrofolate, 0.5 mM NADPH, and 0.012 Units/ml of dihydrofolate reductase. The absorbance of each reaction mixture at 560 nm was read over a 10 minute incubation period at 37° C.

antibody to thyroxine = assay: Effect on the binding of 125I-thyroxine with antibody (polyethyleneglycol precipitation); details: for Percent 125I-Thyroxine in Precipitate: percent of radioactivity without fenclofenac, 180 min
Experimental: A series of antibody binding reactions were set up in 0.1M sodium phosphate buffer, pH 6.5, to give final volumes of 0.6 ml containing various concentrations of fenclofenac. Each reaction contained ^125 I-thyroxine, 20 μl of normal rabbit immunoglobulin, and 2 μl of antibody to thyroxine. The mixtures were incubated at room temperature for about 3 hours and then 400 μl of 50% (w/v) polyethyleneglycol was added. The precipitated proteins were collected by centrifugation and the radioactivity in each precipitate was measured. The results are shown in Table 2 as percent of the radioactivity in the precipitate without fenclofenac.

[3] = Optical absorption spectra; type: physicochemical
apoglucose oxidase = apoglucose oxidase (Aspergillus niger, UniProt P13006); assay: Activation of apoglucose oxidase by FAD-theophylline conjugate (fenclofenac); type: biochemical; details: 5 min, 37° C., read-out: Percent Apoglucose Oxidase Activity
Chain of apoglucose oxidase (P13006 17-605): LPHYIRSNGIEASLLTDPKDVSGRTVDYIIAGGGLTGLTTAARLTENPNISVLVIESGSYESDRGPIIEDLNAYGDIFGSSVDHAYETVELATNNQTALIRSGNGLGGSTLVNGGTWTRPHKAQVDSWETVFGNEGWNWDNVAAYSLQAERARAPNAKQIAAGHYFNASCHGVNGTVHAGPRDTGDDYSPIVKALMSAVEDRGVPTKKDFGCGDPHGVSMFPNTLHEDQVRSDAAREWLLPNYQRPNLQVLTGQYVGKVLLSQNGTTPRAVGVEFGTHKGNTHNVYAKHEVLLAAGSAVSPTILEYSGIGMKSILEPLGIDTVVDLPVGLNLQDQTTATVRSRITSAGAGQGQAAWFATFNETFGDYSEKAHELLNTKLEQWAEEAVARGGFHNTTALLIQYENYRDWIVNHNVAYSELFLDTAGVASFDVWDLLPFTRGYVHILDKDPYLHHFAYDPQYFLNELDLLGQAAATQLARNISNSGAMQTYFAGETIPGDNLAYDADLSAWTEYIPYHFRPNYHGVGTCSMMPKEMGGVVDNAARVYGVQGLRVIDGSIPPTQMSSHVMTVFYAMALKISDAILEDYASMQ
Experimental: A series of apoenzyme reactivation measurements were set up with different concentrations of fenclofenac. The assays were performed at 37° C. and the final reagent concentrations in 0.1M phosphate buffer, pH 7.0, were 1.0 nanomolar (nM) FAD-labeled conjugate (an FAD-theophylline conjugate as described in U.S. Pat. No. 4,238,565), 50 nM apoglucose oxidase (U.S. Pat. No. 4,268,631), 2.5 μl/ml anti(glucose oxidase) antiserum, 2 mM sodium dichlorohydroxybenzene sulfonate (DHSA), 0.2 mM 4-aminoantipyrine, 0.1M glucose, 20 μg/ml peroxidase, and 0.1% (w/v) bovine serum albumin. The apoenzyme and anti(glucose oxidase) were preincubated and the reaction then started by simultaneously mixing in the other reagents. The reaction mixtures were incubated for 5 minutes and then absorbance at 520 nm read. The results shown in Table 4 relate fenclofenac concentration to the generation of active glucose oxidase.

[4] = Fluorescence and fluorescence quenching studies (SLFIA conditions); details: 10 mM fenclofenac; excitation 400 nm, emission 450 nm, 50 mM Bicine buffer pH 8.3
Experimental: Fluorescence measurements were conducted in 50 mM Bicine buffer (N,N-bis-(2-hydroxyethyl)glycine, Calbiochem-Behring, LaJolla, Calif., USA), pH 8.3, using an Aminco Bowman Fluorometer (American Instruments, Silver Springs, Md., USA), excitation set at 400 nm and emission at 450 nm, which are the fluorescence conditions for the β-galactosyl-umbelliferone enzyme substrate-labeled fluorescent immunoassay (SLFIA) described in U.S. Pat. No. 4,279,992.
Quenching studies were performed by measuring the fluorescence of a 1.3 μM solution of 2-[7-hydroxy-3-carboxamidocoumarin]ethanol (U.S. Pat. No. 4,273,715) in the presence of various levels of fenclofenac. The ratios of observed fluorescence (F) to fluorescence in the absence of fenclofenac (Fo) versus fenclofenac concentration were calculated and are presented in Table 6.

`O=C(O)Cc1ccccc1Oc1ccc(Cl)cc1Cl` [Fenclofenac, 2-(2,4-dichlorophenoxy)phenylacetic acid] gave a fluorescence units ([1]; thyroxine standard 0 μg/dl, excitation 360 nm, emission 450 nm) of 24.9 fluorescence units, a fluorescence units ([1]; thyroxine standard 2 μg/dl) of 25.5 fluorescence units and a fluorescence units ([1]; thyroxine standard 4 μg/dl) of 26.4 fluorescence units. For the same compound, the fluorescence units ([1]; thyroxine standard 6 μg/dl) was 27.2 fluorescence units, the fluorescence units ([1]; thyroxine standard 8 μg/dl) was 26.7 fluorescence units and the fluorescence units ([1]; thyroxine standard 10 μg/dl) was 27.1 fluorescence units. The fluorescence units ([1]; thyroxine standard 12 μg/dl) was 30.0 fluorescence units, the fluorescence units ([1]; thyroxine standard 16 μg/dl) was 30.1 fluorescence units and the fluorescence units ([1]; thyroxine standard 20 μg/dl) was 30.8 fluorescence units. For the same compound, the “release and block the binding of protein-bound iodothyronine” value ([2]; 0.25 mM in immunoassay reaction mixture) was 40-50%, the “release and block the binding of protein-bound iodothyronine” value ([2]; 0.50 mM in immunoassay reaction mixture) was 60-70% and the “Percent Dissociated” value ([2]; dissociating agent 0.25 mM) was 40%. The “Percent Dissociated” value ([2]; dissociating agent 0.50 mM) was 61%, the “Percent Dissociated” value ([2]; dissociating agent 1.00 mM) was 71% and the “Percent Dissociated” value ([2]; dissociating agent 2.00 mM) was 75%. For the same compound, the “Percent Dissociated” value ([2]; dissociating agent 4.00 mM) was 79%, the “Percent Dissociated” value ([2]; dissociating agent 8.00 mM) was 81% and the “Absorbance Change Over 10 Minutes” value (dihydrofolate reductase; 0.1 mM fenclofenac) was 0.359. The “Absorbance Change Over 10 Minutes” value (dihydrofolate reductase; 0.2 mM fenclofenac) was 0.365, the “Absorbance Change Over 10 Minutes” value (dihydrofolate reductase; 0.5 mM fenclofenac) was 0.355 and the “Absorbance Change Over 10 Minutes” value (dihydrofolate reductase; 1.0 mM fenclofenac) was 0.332. For the same compound, the “Absorbance Change Over 10 Minutes” value (dihydrofolate reductase; 2.5 mM fenclofenac) was 0.273, the “Absorbance Change Over 10 Minutes” value (dihydrofolate reductase; 5.0 mM fenclofenac) was 0.118 and the “inhibition of enzyme activity (dihydrofolate reductase)” value (dihydrofolate reductase; concentrations below 1.0 mM) was “did not give substantial inhibition”. For the same compound, the “Percent 125I-Thyroxine in Precipitate” value (antibody to thyroxine; 0.2 mM fenclofenac) was 97%, the “Percent 125I-Thyroxine in Precipitate” value (antibody to thyroxine; 0.5 mM fenclofenac) was 80% and the “Percent 125I-Thyroxine in Precipitate” value (antibody to thyroxine; 1.0 mM fenclofenac) was 69%. For the same compound, the “Percent 125I-Thyroxine in Precipitate” value (antibody to thyroxine; 2.5 mM fenclofenac) was 61%, the “Percent 125I-Thyroxine in Precipitate” value (antibody to thyroxine; 5.0 mM fenclofenac) was 43% and the “inhibition of the antibody binding reaction” value (antibody to thyroxine; concentrations below about 2.5 mM) was “about 40%”. The “inhibition of the antibody binding reaction” value (antibody to thyroxine; concentrations below about 5 mM) was “about 50%”, the “optical absorption above 300 nm” value ([3]; 0.5 mM solution in 0.1M sodium phosphate buffer, pH 6.5) was “no significant absorption above 300 nanometers” and the “visible color of solution” value ([3]; 50 mM solution in dilute sodium hydroxide) was “no visible color”. For the same compound, the λmax ([3]; in 0.1M sodium hydroxide) was 275 nanometers and 269 nanometers, the λmin ([3]; in 0.1M sodium hydroxide) was 257 nanometers and the “ε max (NaOH), extinction coefficient” value ([3]; in 0.1M sodium hydroxide, at λmax) was 2060 M⁻¹ cm⁻¹ and 2050 M⁻¹ cm⁻¹. The “ε min (NaOH), extinction coefficient” value ([3]; in 0.1M sodium hydroxide, at λmin) was 1520 M⁻¹ cm⁻¹, the activity at 500 µM (apoglucose oxidase; pH 7, 0.5 mM fenclofenac) was 81% and the activity at 1000 µM (apoglucose oxidase; pH 7, 1.0 mM fenclofenac) was 66%. It also gave an activity at 1500 µM (apoglucose oxidase; pH 7, 1.5 mM fenclofenac) of 61%, an activity at 2000 µM (apoglucose oxidase; pH 7, 2.0 mM fenclofenac) of 64% and an activity at 2500 µM (apoglucose oxidase; pH 7, 2.5 mM fenclofenac) of 47%. For the same compound, the own fluorescence [4] was “did not exhibit any fluorescence”.
